Experimental data published in ChEMBL document CHEMBL4411259, “Medicinal properties of terpenes found in Cannabis sativa and Humulus lupulus” (Eur J Med Chem, 2018).
In brackets after ≈: the same amount, converted by molar mass.

Columns and labels:
HepG2 [1] = assay: Antiinvasive activity against human HepG2 cells by matrigel-based transwell assay; assay type: functional, cell-based
SMMC-7721 = assay: Antiinvasive activity against human SMMC7721 cells by matrigel-based transwell assay; assay type: functional, cell-based
MHCC97H = assay: Antiinvasive activity against human MHCC97H cells by matrigel-based transwell assay; assay type: functional, cell-based
RAW264.7 = assay: Inhibition of LPS-induced nitric oxide production in mouse RAW264.7 cells measured after 20 hrs by Griess assay; assay type: functional, cell-based; details: RAW264.7, 20 h
[2] = Inhibition of IL1beta-induced nitric oxide production in human primary chondrocytes preincubated for 30 mins followed by IL1beta-stimulation and measured after 24 hrs by Griess assay; assay type: functional, cell-based
T47D = assay: Cytotoxicity against human T47D cells assessed as inhibition of cell proliferation after 24 hrs by WST1 assay; assay type: functional, cell-based
SW-620 = assay: Cytotoxicity against human SW620 cells assessed as inhibition of cell proliferation after 24 hrs by WST1 assay; assay type: functional, cell-based; details: SW-620, 24 h
HepG2 [3] = assay: Cytotoxicity against human HepG2 cells assessed as inhibition of cell proliferation after 24 hrs by WST1 assay; assay type: functional, cell-based; details: HepG2, 24 h
U-937 = assay: Cytotoxicity against human U937 cells after 3 days by WST1 assay; assay type: functional, cell-based; details: U-937, 72 h
HeLa = assay: Cytotoxicity against human HeLa cells after 3 days by WST1 assay; assay type: functional, cell-based; details: 72 h
Trichophyton rubrum = assay: Antimicrobial activity against Trichophyton rubrum after 7 days by microdilution method; assay type: functional; details: 168 h
Mus musculus [4] = organism: Mus musculus; assay: Sedative effect in Swiss mouse assessed as reduction in motility at plasma concentration of 27 nM; assay type: functional; design: scale not given: the % may be the effect or the level left
[5] = Dermal toxicity in rabbit; assay type: organism-based, Oryctolagus cuniculus; details: in vivo, topical or ocular
[6] = Toxicity in po dosed rat; assay type: organism-based; details: in vivo
[7] = Toxicity in po dosed mouse; assay type: organism-based; details: in vivo
[8] = Antitumor activity against human HubCCA1 cells xenografted in BALB/c nude mouse assessed as reduction in tumor size at 100 mg/kg, po administered once daily for 30 days measured every 3 consecutive days during compound dosing; assay type: functional; design: scale not given: the % may be the effect or the level left
[9] = Antitumor activity against human HubCCA1 cells xenografted in BALB/c nude mouse assessed as reduction in lung metastasis at 100 mg/kg, po administered once daily for 30 days measured post last dose by haematoxylin-eosin staining based assay; assay type: functional; design: scale not given: the % may be the effect or the level left
[10] = Antitumor activity against human HubCCA1 cells xenografted in BALB/c nude mouse assessed as mouse survival at 100 mg/kg, po administered once daily for 30 days; assay type: functional
[11] = molecular target: T1, Transient receptor potential cation channel subfamily A member 1 (Homo sapiens, UniProt O75762); assay: Agonist activity at human TRPA1
T1 sequence (O75762 whole entry, the tested form may be a part): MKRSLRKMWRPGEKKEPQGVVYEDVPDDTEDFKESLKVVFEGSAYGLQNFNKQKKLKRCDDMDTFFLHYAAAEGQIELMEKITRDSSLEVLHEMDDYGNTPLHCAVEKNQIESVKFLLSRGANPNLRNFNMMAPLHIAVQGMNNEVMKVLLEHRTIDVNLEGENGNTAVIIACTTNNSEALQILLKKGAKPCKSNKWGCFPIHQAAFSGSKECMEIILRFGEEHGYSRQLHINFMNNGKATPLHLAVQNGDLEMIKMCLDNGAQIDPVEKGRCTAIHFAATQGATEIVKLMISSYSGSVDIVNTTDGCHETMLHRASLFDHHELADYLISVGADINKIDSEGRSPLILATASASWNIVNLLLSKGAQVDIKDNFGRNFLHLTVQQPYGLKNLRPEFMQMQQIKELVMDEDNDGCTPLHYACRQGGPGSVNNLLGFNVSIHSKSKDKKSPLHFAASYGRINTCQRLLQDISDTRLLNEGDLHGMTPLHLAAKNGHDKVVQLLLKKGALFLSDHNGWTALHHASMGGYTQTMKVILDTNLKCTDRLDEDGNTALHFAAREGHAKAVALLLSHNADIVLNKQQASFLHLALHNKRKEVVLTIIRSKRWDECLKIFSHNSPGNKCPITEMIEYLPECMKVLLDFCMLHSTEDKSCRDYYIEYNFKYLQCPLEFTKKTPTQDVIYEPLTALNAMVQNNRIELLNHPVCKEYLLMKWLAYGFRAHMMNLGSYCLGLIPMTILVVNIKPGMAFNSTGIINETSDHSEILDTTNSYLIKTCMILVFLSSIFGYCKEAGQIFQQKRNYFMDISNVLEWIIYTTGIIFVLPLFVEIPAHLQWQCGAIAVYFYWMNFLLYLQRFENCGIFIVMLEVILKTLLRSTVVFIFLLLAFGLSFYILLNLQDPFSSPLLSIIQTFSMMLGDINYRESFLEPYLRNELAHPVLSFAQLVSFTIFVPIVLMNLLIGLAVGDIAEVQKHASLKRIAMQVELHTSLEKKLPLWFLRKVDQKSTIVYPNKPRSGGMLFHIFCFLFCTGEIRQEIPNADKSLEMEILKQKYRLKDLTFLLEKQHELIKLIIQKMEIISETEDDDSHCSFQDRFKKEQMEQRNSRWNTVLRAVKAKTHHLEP

Rattus norvegicus = assay: Antiischemic stroke activity in iv dosed Sprague-Dawley rat middle cerebral artery occlusion-induced ischemia-reperfusion injury model assessed as decrease in infarct size by TTC staining based assay; assay type: functional
[12] = molecular target: T1, Transient receptor potential cation channel subfamily A member 1; assay: Antagonist activity at TRPA1 (unknown origin) expressed in Xenopus laevis oocytes assessed as inhibition of mustard oil-induced currents by two-electrode voltage clamp method; assay type: cell-based
Leukemia cell = assay: Cytotoxicity against ALL/AML patient derived primary leukemia cells after 24 hrs by LDH release assay; assay type: functional, cell-based; details: Homo sapiens
[13] = molecular target: Neuronal acetylcholine receptor subunit alpha-7 (Homo sapiens, UniProt P36544); assay: Antagonist activity at human alpha7 nACHR expressed in Xenopus laevis oocytes assessed as inhibition of acetylcholine-induced currents at -70 mV holding potential by electrophysiology; assay type: cell-based
Chain of Neuronal acetylcholine receptor subunit alpha-7 (P36544 whole entry): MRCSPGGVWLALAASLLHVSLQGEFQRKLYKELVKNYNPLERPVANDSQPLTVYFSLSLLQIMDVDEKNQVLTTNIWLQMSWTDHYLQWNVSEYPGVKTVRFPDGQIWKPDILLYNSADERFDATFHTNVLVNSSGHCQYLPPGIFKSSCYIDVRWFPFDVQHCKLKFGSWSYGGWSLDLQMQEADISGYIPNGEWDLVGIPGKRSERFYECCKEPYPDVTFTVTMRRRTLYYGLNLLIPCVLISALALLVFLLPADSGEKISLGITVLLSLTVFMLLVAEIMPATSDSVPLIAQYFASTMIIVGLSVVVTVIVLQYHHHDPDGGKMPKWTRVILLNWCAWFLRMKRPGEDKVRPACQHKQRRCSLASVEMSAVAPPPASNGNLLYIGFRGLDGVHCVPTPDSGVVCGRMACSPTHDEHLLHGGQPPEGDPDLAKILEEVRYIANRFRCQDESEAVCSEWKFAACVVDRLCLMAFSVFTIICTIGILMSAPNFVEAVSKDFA

HT-29 = assay: Cytotoxicity against human HT-29 cells assessed as reduction in cell viability after 24 hrs by MTT assay; assay type: functional, cell-based; details: HT-29, 24 h
Escherichia coli = assay: Antibacterial activity against Escherichia coli CMCC 44102 after 24 hrs by broth dilution method; assay type: functional
Gardnerella vaginalis = assay: Antimicrobial activity against Gardnerella vaginalis; assay type: functional
Candida albicans = assay: Antimicrobial activity against Candida albicans; assay type: functional
Mus musculus [14] = organism: Mus musculus; assay: Sedative effect in Swiss mouse assessed as reduction in motility at 34 nM; assay type: functional; design: scale not given: the % may be the effect or the level left
HL-60 = assay: Cytotoxicity against human HL60 cells assessed as reduction in cell viability after 24 hrs by MTT assay; assay type: functional, cell-based; details: HL-60, 24 h
Duodenum = assay: Myorelaxant activity in California White rabbit duodenum assessed as relaxation of high-potassium-induced contraction; assay type: functional, tissue-based; details: Oryctolagus cuniculus
Coccidioides posadasii = assay: Antifungal activity against Coccidioides posadasii filamentous phase after 48 hrs by broth microdilution method; assay type: functional
Histoplasma capsulatum [15] = assay: Antifungal activity against Histoplasma capsulatum filamentous phase after 7 days by broth microdilution method; assay type: functional; details: 168 h
Histoplasma capsulatum [16] = assay: Antifungal activity against Histoplasma capsulatum yeast phase after 4 days by broth microdilution method; assay type: functional; details: 96 h
Cannabinoid receptor 2 [17] = molecular target: T2, Cannabinoid receptor 2 (Homo sapiens, UniProt P34972); assay: Displacement of [3H]CP55940 from human CB2 expressed in CHOK1 cell membranes after 2 hrs by liquid scintillation counting method
T2 sequence (P34972 whole entry): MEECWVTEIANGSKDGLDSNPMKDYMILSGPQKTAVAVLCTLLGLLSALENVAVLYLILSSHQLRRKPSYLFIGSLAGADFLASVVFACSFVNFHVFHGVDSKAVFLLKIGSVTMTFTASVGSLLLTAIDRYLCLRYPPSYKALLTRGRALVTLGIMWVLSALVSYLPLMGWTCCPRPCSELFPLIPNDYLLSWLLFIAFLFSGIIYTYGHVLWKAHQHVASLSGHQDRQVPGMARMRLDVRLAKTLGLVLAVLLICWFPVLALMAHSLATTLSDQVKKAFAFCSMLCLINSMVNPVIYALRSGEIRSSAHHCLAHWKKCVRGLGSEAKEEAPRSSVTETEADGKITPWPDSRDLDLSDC

Cannabinoid receptor 2 [18] = molecular target: T2, Cannabinoid receptor 2; assay: Agonist activity at recombinant human Cb2 receptor expressed in CHOK1 cells assessed as inhibition of forskolin-stimulated cAMP levels measured up to 30 mins by luminescence assay; assay type: functional, cell-based
[19] = Toxicity in po dosed albino Wistar rat; assay type: organism-based; details: in vivo
U373 MG = assay: Cytoprotective activity against H2O2-induced cell death in human U373MG cells assessed as increase in cell viability preincubated for 24 hrs followed by H2O2-stimulation and measured after 30 mins by MTT assay; assay type: functional, cell-based, U-373MG ATCC
Mus musculus [20] = organism: Mus musculus; assay: Sedative effect in Swiss mouse assessed as reduction in motility; assay type: functional; design: scale not given: the % may be the effect or the level left

C=C(C)[C@H]1CC=C(CO)CC1
IC50 (HepG2 [1]): 100 µM
IC50 (SMMC-7721): 100 µM
IC50 (MHCC97H): 100 µM

C/C1=C\CC(C)(C)/C=C/C(=O)/C(C)=C/C(O)C1 (stereo not drawn)
IC50 (RAW264.7): 14.1 µM

C=CC(=C)CCC=C(C)C [MYRCENE]
IC50 [2]: 37.3 µg/mL (≈ 274 µM)

C=C[C@@](C)(O)CCC=C(C)C
IC50 (T47D): 224 µM
IC50 (SW-620): 222 µM
IC50 (HepG2 [3]): 290 µM
IC50 (U-937): 3 µM
IC50 (HeLa): 11 µM
MIC (Trichophyton rubrum): 260 µg/mL (≈ 1690 µM)
Activity (Mus musculus [4]): 73%

C=CC(C)(O)CC/C=C(\C)CCC=C(C)C (stereo not drawn) [NEROLIDOL]
LD50 [5]: > 2000 mg/kg
LD50 [6]: 5000 mg/kg
LD50 [7]: 10000 mg/kg

C=C1CCC[C@]2(C)CC[C@@H](C(C)(C)O)C[C@@H]12 [BETA-EUDESMOL]
Activity [8]: 92%
Activity [9]: 95%
Activity [10]: 64%
EC50 [11]: 33 µM

CC1(C)C2CCC1(C)C(O)C2 (stereo not drawn) [BORNEOL]
ED50 (Rattus norvegicus): 0.36 mg/kg
IC50 [12]: 300 µM

CC(C)=CCC[C@](C)(O)[C@@H]1CC=C(C)CC1 [LEVOMENOL]
IC50 (Leukemia cell): 14 µM
IC50 [13]: 3.1 µM

C/C1=C\CC/C(C)=C/CC(C)(C)/C=C/C1 [ALPHA-HUMULONE]
IC50 (HT-29): 54 µM

CC1=CCC(C(C)(C)O)CC1 (stereo not drawn)
MIC (Escherichia coli): 0.78 uL/ml
MIC (Gardnerella vaginalis): 0.06 %v/v
MIC (Candida albicans): 0.125 %v/v
Activity (Mus musculus [14]): 45%

CC1=CCC(O)(C(C)C)CC1 (stereo not drawn) [TERPINEOL]
IC50 (HL-60): 30 µM
IC50 (Duodenum): 170 µM
MIC (Coccidioides posadasii): 250 µg/mL (≈ 1620 µM)
MIC (Histoplasma capsulatum [15]): 30 µg/mL (≈ 194 µM)
MIC (Histoplasma capsulatum [16]): 10 µg/mL (≈ 64.8 µM)

C=C1CC/C=C(\C)CC[C@@H]2[C@@H]1CC2(C)C [BETA-CARYOPHYLLENE]
Ki (Cannabinoid receptor 2 [17]): 0.15 µM
EC50 (Cannabinoid receptor 2 [18]): 1.9 µM

CC(C)=CCC/C(C)=C/CO [GERANIOL]
LD50 [19]: 3600 mg/kg

CC1=CC[C@@H]2C[C@H]1C2(C)C [1R-(+)-ALPHA-PINENE]
IC50 (U373 MG): 80 µM
Activity (Mus musculus [20]): 14%
